Assays:
[1] = Assessment of cytotoxicity in Huh-7 cells, assessed as % inhibition of cell viability by Celltiter-Glo assay after 48 hrs; type: toxicity, cell-based; settings: human, read-out: Inhibition; for cytotoxicity at 48 h, 1 µM: conc 1 uM; for cytotoxicity at 48 h, 5 µM: conc 5 uM
SARS-CoV-2 [2] = test: Inhibition of SARS-CoV-2 pseudoparticle entry in human lung Airway Chip at reported drug Cmax, assessed by qRT-PCR after 48 hrs; type: functional; settings: Severe acute respiratory syndrome coronavirus 2, Lung epithelium
SARS-CoV-2 [3] = test: Inhibition of SARS-CoV-2 pseudoparticle entry in Huh-7 cells, assessed by luciferase assay after 72 hrs; type: functional, Homo sapiens; settings: Severe acute respiratory syndrome coronavirus 2, Huh-7, 72 h; for inhibition at 1 µM: CONC 1 uM; for inhibition at 5 µM: CONC 5 uM

SMILES | cytotoxicity at 48 h, 1 µM [1] | cytotoxicity at 48 h, 5 µM [1] | inhibition at 0.83 µM (SARS-CoV-2 [2]; CONC 0.83 uM) | inhibition at 1 µM (SARS-CoV-2 [3]) | inhibition at 5 µM (SARS-CoV-2 [3]) | inhibition at 0.81 µM (SARS-CoV-2 [2]; CONC 0.81 uM) | inhibition at 2.98 µM (SARS-CoV-2 [2]; CONC 2.98 uM) | inhibition at 1.24 µM (SARS-CoV-2 [2]; CONC 1.24 uM) | inhibition at 20.04 µM (SARS-CoV-2 [2]; CONC 20.04 uM) | inhibition at 1.91 µM (SARS-CoV-2 [2]; CONC 1.91 uM) | inhibition at 3.89 µM (SARS-CoV-2 [2]; CONC 3.89 uM)
CCN(CC)CCOc1ccc(C(=C(Cl)c2ccccc2)c2ccccc2)cc1 [CLOMIPHENE] | 2% | 12% | 30% | 60% | 80% |  |  |  |  |  | 
COc1ccc(CCN(C)CCCC(C#N)(c2ccc(OC)c(OC)c2)C(C)C)cc1OC (stereo not drawn) |  |  |  | 15% | 50% | 10% |  |  |  |  | 
CN(C)CCOc1ccc(/C(=C(/CCCl)c2ccccc2)c2ccccc2)cc1 [TOREMIFENE] | 1% | 10% |  | 30% | 65% |  | 50% |  |  |  | 
CCN(CC)Cc1cc(Nc2ccnc3cc(Cl)ccc23)ccc1O [AMODIAQUINE] | 1% | -5% |  | 70% | 90% |  |  | 60% |  |  | 
CCCCc1oc2ccccc2c1C(=O)c1cc(I)c(OCCN(CC)CC)c(I)c1 [AMIODARONE] | 1% | 2% |  | 55% | 70% |  |  |  | 20% |  | 
CCN(CC)CCCC(C)Nc1ccnc2cc(Cl)ccc12 (stereo not drawn) [CHLOROQUINE] | 2% | 3% |  | 50% | 85% |  |  |  |  | 10% | 
CCOC(=O)c1c(CSc2ccccc2)n(C)c2cc(Br)c(O)c(CN(C)C)c12 [UMIFENOVIR] | 1% | 10% |  | 5% | 75% |  |  |  |  |  | 20%

Reference: ChEMBL document CHEMBL4303121, “Human organs-on-chips as tools for repurposing approved drugs as potential influenza and COVID19 therapeutics in viral pandemics” (2020)
